Data as given in patent US20210196714A1, “COMPOSITIONS AND METHODS FOR TREATING DISORDERS CHARACTERIZED WITH ABERRANT RAS/MAPK SIGNALING” (Duke University, priority 2018, published 2021).
“Also recorded” adds a separate entry of the source.

Legend:
[1] = test system: kmt2d CRISPR mosaic mutants (F0); experiment: Jaw defects in kmt2d-CRISPR F0 mutants; type: in vivo, zebrafish; settings: kmt2d-CRISPR F0, 100 nM, 5 dpf; listed as dmDf
Source text: Prior and current genetic zebrafish models of KS focused on the newly discovered rap1a/rap1b genes. However, from the perspective of clinical utility, dmDf should be efficacious in kmt2d mutants, since loss of function mutations of the human ortholog account for as much as 75% of KS (see, Ng, S. B. et al. Nat Genet 42, 790-3 (2010); Li, Y. et al. Hum Genet 130, 715-24 (2011); Lu, J., Mo, G., Ling, Y. & Ji, L. Mol Med Rep 14, 3641-5 (2016); Miyake, N. et al. Am J Med Genet A 161a, 2234-43 (2013)). Therefore, experiments supplemented the testing tools by creating a kmt2d CRISPR/Cas9 mutant. A guide RNA targeting exon 4 of kmt2d induced efficient (˜99%) Cas9-mediated genome editing (FIG. 8). […]
For convergence and extension (CE) phenotyping, embryos were scored as described (see, Leitch, C. C. et al. Nat Genet 40, 443-8 (2008)) at the 8-10 somite stage, and images were captured using an AZ100 microscope and NIS Elements software (Nikon). […] The distance between Meckel's (MK) and ceratohyal (CH) cartilages was measured on ventral bright field images with Image J (NIH). […] Fluorescence signal on embryo heads was imaged with the Nikon AZ100 microscope and DS-Qi1MC digital camera using […] Z-stacks to generate extended depth of focus images. Cell numbers were quantified using the ImageJ ICTN plugin (NIH). […]

zebrafish embryos = experiment: Toxicity test in zebrafish embryos; type: in vivo
Protocol: (§1) FIG. 1: In vivo screen using BRAF/MEK/ERK inhibitors. (a) Flow chart of the experimental design. […] For the primary screen, 24 compounds were assessed for their ability to rescue the convergent-extension (CE) phenotype of zebrafish kmt2d morphants, followed by rescue tests of additional phenotypes (jaw and brain) within the kmt2d morphant, or CE of additional genetic KS models. (b) Toxicity results. Twenty embryos at the 8-cell stage were incubated in egg water containing 100 nM, 1 μM, and 10 μM of the 26 compounds. After 24 hours, larvae were scored for toxicity. Black bar: death; grey bar: abnormal morphology; white bar: nontoxic. (c) Embryos were injected with kmt2d-MO at the 2-4 cell stage and soaked in egg water containing 100 nM of each compound at the 8-cell stage. After 24 hours, larvae were scored for CE. […] The efficacy of each compound was determined by a chi-square test in which Class I and Class II were considered together.
(§2) To guard against possible bias, the tool and negative control compounds were interspersed across the experiment and the zebrafish phenotyping team was blinded to the identity of each compound. Typical of small molecule storage, each of the 29 compounds was dissolved in dimethyl sulfoxide (DMSO). […] Next, each compound was diluted serially with egg water and toxicity tested by assaying the percentage of abnormal or dead embryos across three different concentrations (10 μM, 1 μM, 100 nM; FIG. 1B).

[2] = Toxicity test in zebrafish embryos; type: in vivo; settings: zebrafish, in vivo; read-out: LC50 (lethal concentration required to kill 50% of the population)
Protocol: as §1, §2

**Q.** With CC(C)c1nc(-c2cccc(NS(=O)(=O)c3c(F)cccc3F)c2F)c(-c2ccnc(N)n2)s1 [Compound 8, desmethyl-Dabrafenib] as the compound, how does the “jaw defects (MK-CH distance)” value [1] read?
**A.** ameliorates the jaw defects; also recorded: ameliorated significantly

**Q.** And the “toxicity at the concentrations used for pMEK test” value (zebrafish embryos; 100 nM or 500 nM)?
**A.** lack of toxicity

**Q.** What about the “toxicity: pathology (abnormal or dead embryos)” value (zebrafish embryos; 100 nM, 24 hours) of the same compound?
**A.** safe

**Q.** What about the “LC50 relative to effective in vivo exposure (greater by)” value (zebrafish embryos; LC50 vs 0.26 nM exposure) of the same compound?
**A.** four

**Q.** What about the “overt pathologies in zebrafish embryos” value (zebrafish embryos; zebrafish, in vivo) of the same compound?
**A.** induced no overt pathologies

**Q.** What about the LC50 at 24 h [2] of the same compound?
**A.** 1 to 10 µM
